According to patent US6608070B1, “2,3-substituted indole compounds as anti-inflammatory and analgesic agents” (priority 1999, dated 2003):

Row | SMILES | melting point
1 | Cc1cccc(C(=O)c2[nH]c3ccc(Cl)cc3c2CC(=O)O)n1 [Example 38, [5-Chloro-2-(6-methylpyridine-2-carbonyl)-1H-indol-3-yl]acetic Acid] | 225 to 226 °C
2 | CCc1ccnc(C(=O)c2[nH]c3ccc(Cl)cc3c2CC(=O)O)c1 [Example 60, [5-Chloro-2-(4-ethylpyridine-2-carbonyl)-1H-indol-3-yl]acetic Acid] | 217 to 218 °C
3 | O=C(O)Cc1c(C(=O)c2ccccc2)[nH]c2cc(Cl)ccc12 [Example 2, (2-Benzoyl-6-chloro-1H-indol-3-yl)acetic Acid] | 183 to 186 °C
4 | O=C(O)Cc1c(C(=O)c2ccc(Cl)cc2)[nH]c2cc(Cl)ccc12 [Example 9, [6-Chloro-2-(4-chlorobenzoyl)-1H-indol-3-yl]acetic Acid] | 181 to 183 °C
5 | Cc1ccc(C(=O)c2[nH]c3ccc(Cl)cc3c2CC(=O)O)nc1 [Example 80, [5-Chloro-2-(5-methylpyridine-2-carbonyl)-1H-indol-3-yl]acetic Acid] | 247 to 248 °C
6 | Cc1ccnc(C(=O)c2[nH]c3ccc(Cl)cc3c2CC(=O)O)c1 [Example 36, [5-Chloro-2-(4-methylpyridine-2-carbonyl)-1H-indol-3-yl]acetic Acid] | 230 to 231 °C
7 | O=C(O)Cc1c(C(=O)c2ccc(Cl)c(F)c2)[nH]c2cc(Cl)ccc12 [Example 204, [6-Chloro-2-(4-chloro-3-fluorobenzoyl)-1H-indol-3-yl]acetic Acid] | 179 to 182 °C
8 | O=C(O)Cc1c(C(=O)c2ccc(Cl)cn2)[nH]c2ccc(Cl)cc12 [Example 86, [5-Chloro-2-(5-chloropyridine-2-carbonyl)-1H-indol-3-yl]acetic Acid] | 259 to 260 °C
9 | O=C(O)Cc1c(C(=O)c2ccncc2)[nH]c2cc(Cl)ccc12 [Example 94, [6-Chloro-2-(pyridine-4-carbonyl)-1H-indol-3-yl]acetic Acid] | 256 to 257 °C
10 | O=C(O)Cc1c(C(=O)c2cccnc2)[nH]c2cc(Cl)ccc12 [Example 92, [6-Chloro-2-(pyridine-3-carbonyl)-1H-indol-3-yl]acetic Acid] | 267 to 268 °C
11 | O=C(O)Cc1c(C(=O)c2cc(Cl)ccn2)[nH]c2ccc(Cl)cc12 [Example 90, [5-Chloro-2-(4-chloropyridine-2-carbonyl)-1H-indol-3-yl]acetic Acid] | 243 to 244 °C
12 | Cc1cccc(C(=O)c2[nH]c3cc(Cl)ccc3c2CC(=O)O)n1 [Example 78, [6-Chloro-2-(6-methylpyridine-2-carbonyl)-1H-indol-3-yl]acetic Acid] | 230 to 231 °C
13 | Cc1ccc(C(=O)c2[nH]c3cc(Cl)ccc3c2CC(=O)O)nc1 [Example 32, [6-Chloro-2-(5-methylpyridine-2-carbonyl)-1H-indol-3-yl]acetic Acid] | 235 to 238 °C
14 | CC(C)c1ccnc(C(=O)c2[nH]c3ccc(Cl)cc3c2CC(=O)O)c1 [Example 64, [5-Chloro-2-(4-isopropylpyridine-2-carbonyl)-1H-indol-3-yl]acetic Acid] | 227 to 228 °C
15 | Cc1cc(C)nc(C(=O)c2[nH]c3ccc(Cl)cc3c2CC(=O)O)c1 [Example 120, [5-Chloro-2-(4,6-dimethylpyridine-2-carbonyl)-1H-indol-3-yl]acetic Acid] | 233 to 235 °C
16 | Cc1cnc(C(=O)c2[nH]c3cc(Cl)ccc3c2CC(=O)O)cc1C [Example 104, [6-Chloro-2-(4,5-dimethylpyridine-2-carbonyl)-1 H-indol-3-yl]acetic Acid] | 226 to 228 °C
17 | Cc1cnc(C(=O)c2[nH]c3ccc(Cl)cc3c2CC(=O)O)cc1C [Example 102, [5-Chloro-2-(4,5-dimethylpyridine-2-carbonyl)-1H-indol-3-yl]acetic Acid] | 245 to 246 °C
18 | COc1ccnc(C(=O)c2[nH]c3cc(Cl)ccc3c2CC(=O)O)c1 [Example 106, [6-Chloro-2-(4-methoxypyridine-2-carbonyl)-1H-indol-3-yl]acetic Acid] | 213 °C (dec.)
19 | CCc1ccnc(C(=O)c2[nH]c3ccc(Cl)cc3c2CC(=O)O)c1F [Example 112, [5-Chloro-2-(4-ethyl-3-fluoropyridine-2-carbonyl)-1H-indol-3-yl]acetic Acid] | 208 °C
20 | CC(C)(C)c1ccnc(C(=O)c2[nH]c3cc(Cl)ccc3c2CC(=O)O)c1 [Example 70, [2-(4-tert-Butylpyridine-2-carbonyl)-6-chloro-1H-indol-3-yl]acetic Acid] | 203 to 205 °C

Now from value to compound:

Row | melting point | SMILES
21 | 229 to 230 °C | CC(C)(O)c1ccoc1C(=O)c1[nH]c2cc(Cl)ccc2c1CC(=O)O [Example 238, [6-Chloro-2-[3-(1-hydroxy-1-methylethyl)-2-furoyl]1H-indol-3-yl]acetic Acid]
22 | 253 to 255 °C | Cc1cc(C(=O)c2[nH]c3ccc(Cl)cc3c2CC(=O)O)no1 [Example 225, [5-Chloro-2-(5-methylisoxazole-3-carbonyl)-1H-indol-3-yl]acetic Acid]
23 | 215 to 216 °C | Cc1nnsc1C(=O)c1[nH]c2cc(Cl)ccc2c1CC(=O)O [Example 231, [6-Chloro-2-(4-methyl-1,2,3-thiadiazole-5-carbonyl)-1H-indol-3-yl]acetic Acid]
24 | 212 to 213 °C | COCc1ccoc1C(=O)c1[nH]c2cc(Cl)ccc2c1CC(=O)O [Example 240, [6-Chloro-2-[3-methoxymethyl-2-furoyl]-1H-indol-3-yl]acetic Acid]
25 | 165.7 °C | Cc1ccnc(C(=O)c2[nH]c3ccc(Cl)cc3c2CC(=O)NCCN)c1 [Example 272, [5-Chloro-2-(4-methylpyridine-2-carbonyl)-1H-indol-3-yl]-N-(2-aminoethyl)acetamide]
26 | 186 to 188 °C | CCOC(=O)Cc1c(C(=O)c2ccc(Cl)cc2)[nH]c2cc(Cl)ccc12 [Example 297, [6-Chloro-2-(4-chloro-benzoyl)-1H-indol-3-yl]-acetic Acid Ethyl Ester]
27 | 227 to 229 °C | Cc1cc(C(=O)c2[nH]c3cc(Cl)ccc3c2CC(=O)O)no1 [Example 227, [6-Chloro-2-(5-methylisoxazole-3-carbonyl)-1H-indol-3-yl]acetic Acid]
28 | 236 to 237 °C | O=C(O)Cc1c(C(=O)c2cc3ccccc3cn2)[nH]c2cc(Cl)ccc12 [Example 223, [6-Chloro-2-(isoquinoline-3-carbonyl)-1H-indol-3-yl]acetic Acid]
29 | 231 to 233 °C | Cc1cnc(C(=O)c2[nH]c3ccc(Cl)cc3c2CC(=O)O)s1 [Example 233, [5-Chloro-2-(5-methylthiazole-2-carbonyl)-1H-indol-3-yl]acetic Acid]
30 | 229 to 230 °C | Cc1nnsc1C(=O)c1[nH]c2ccc(Cl)cc2c1CC(=O)O [Example 229, [5-Chloro-2-(4-methyl-1,2,3-thiadiazole-5-carbonyl)-1H-indol-3-yl]acetic Acid]
31 | 162 to 165 °C | CCOC(=O)C=Cc1ccc(Cl)cc1N(CC(=O)c1ccc(Cl)cc1)S(=O)(=O)c1ccc(C)cc1 [Example 295, 3-{4-Chloro-2-[[2-(4-chloro-phenyl)-2-oxo-ethyl]-(toluene-4-sulfonyl)-amino]-phenyl}-acrylic Acid Ethyl Ester]
